From patent US10921327B2, “Probes for quantitative imaging of thiols in various environments” (Baylor College of Medicine, priority 2014, dated 2021)
pKd: −log10 of the molar value. Read-outs that look alike come from different tables or passages of the source.

What was measured:
cells = test: Confocal imaging of probe interacting with cells (cell penetration); assay type: cell-based
Procedure: FIG. 10 provides confocal images at 488 nm channel of TQ Green (acid form, FIG. 10A), and TQ Green-AM (ester form, FIG. 10B) interacting with cells.
All cell lines used in this study were purchased from American Type Culture Collection (ATCC) and grown in DMEM (Gibco, 11965) media supplemented with 10% FBS and 1% 1003 Pen Strep (Gibco). Cells were cultured under a controlled atmosphere (37° C., 5% CO2). Glass dishes were used for cell culture due to confocal scanning requirements. Cells were treated with TQ Green-AM (20 nM-1 μM with 0.0025-1% DMSO in PBS) for 30 minutes, followed by two washing steps with tryptan blue and PBS prior to imaging. Fluorescent images were acquired with 405 nm laser/430-470 nm filter and 488 nm laser/575-620 nm filter. All the microscope settings were kept consistent in each experiment.

[1] = Reaction specificity of TQ Green: cysteine; conditions: 0.1 mM cysteine, within 2 hours, PBS pH 7.4
Procedure: (§1) For clarity, data points for TQ Green reaction with BSA, Cysteine, and PBS were offset by 0.1 units from each other on the y axis. Data points represent the absorbance of reaction mixtures of TQ Green (32 μM) with cysteine (100 μM, blue), BSA (5 mM, green), GSH (20 mM red) and water (black) in PBS (pH 7.4) at 480 nm, the maximum absorption wavelength for TQ Green.
Free cysteine and the surface exposed cysteine residues on proteins inside cells could potentially compete with GSH in TQ Green reactions. It is known that, in contrast to the 1-10 mM concentrations of GSH inside cells, cysteine concentrations are in the range of 0.1-1 mM, approximately an order of magnitude lower than GSH levels. Assuming cysteine and GSH have similar reactivities, the presence of cysteine will introduce an error no more than 10%.

Solubility = assay type: physicochemical; conditions: PBS buffer, aqueous buffer
[2] = Reaction kinetics and reversibility of probe with GSH (UV-Vis)
Procedure: The reaction between TQ Green and GSH is reversible.
The second-order rate constant between TQ Green and GSH is 0.150±0.001M^−1·s^−1. There were no appreciable Abs changes observed after 20 minutes. Following a pause for another 80 minutes to ensure that the equilibrium between TQ Green and GSH was fully established, Applicants added two equivalents of an irreversible Michael acceptor (5,6-dihydro-2H-pyran-2-one) to deplete all the GSH in solution (FIG. 4A).
GSH in PBS was added to a solution of TQ Green in PBS buffer (10 mM, pH 7.4) containing 1% DMSO. The final concentrations of GSH and TQ Green were 10 mM and 16 μM, respectively. The solutions were then monitored continuously with UV-Vis spectrometer (FIGS. 21A-D).

BSA = BSA (Bos taurus, UniProt P02769); test: Reaction specificity of TQ Green: BSA; parameters: species or system bovine; conditions: 5 mM BSA, PBS pH 7.4
Sequence of BSA (P02769 25-607): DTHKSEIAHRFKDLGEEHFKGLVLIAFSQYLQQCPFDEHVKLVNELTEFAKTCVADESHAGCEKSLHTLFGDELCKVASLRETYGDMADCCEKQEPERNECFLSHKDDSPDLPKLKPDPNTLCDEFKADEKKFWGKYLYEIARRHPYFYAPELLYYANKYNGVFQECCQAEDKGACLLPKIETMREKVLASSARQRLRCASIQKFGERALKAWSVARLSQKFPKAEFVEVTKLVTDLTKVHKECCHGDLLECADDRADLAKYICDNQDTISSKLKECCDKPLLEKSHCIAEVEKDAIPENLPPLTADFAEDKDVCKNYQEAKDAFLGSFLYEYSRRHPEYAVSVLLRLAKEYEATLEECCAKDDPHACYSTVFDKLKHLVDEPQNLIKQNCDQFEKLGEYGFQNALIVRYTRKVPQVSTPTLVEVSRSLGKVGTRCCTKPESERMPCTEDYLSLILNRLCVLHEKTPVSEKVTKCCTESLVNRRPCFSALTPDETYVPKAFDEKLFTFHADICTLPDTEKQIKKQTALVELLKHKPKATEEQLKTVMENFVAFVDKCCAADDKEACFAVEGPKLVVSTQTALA
Procedure: as §1
Proteins containing free thiol groups may also react with TQ Green to affect the measurement of GSH levels. On average, the protein concentration inside cells is 3×10^6 molecules/μm^3, which corresponds to a concentration of 5 mM. Assuming there is one free thiol on each protein molecule, 5 mM of bovine serum albumin (BSA) solution should reasonably mimic intracellular proteins because a) BSA has a free thiol on its surface; and b) the molecular weight of BSA (65 kDa) is close to the average molecular weight of intracellular proteins (˜50 kDa). […] Through these experiments and analyses, Applicants can conclude that TQ Green has good specificity towards GSH under physiological conditions.

[3] = Equilibrium (dissociation constant) of probe and GSH reaction, UV-Vis/fluorescence; assay type: binding
Procedure: Applicants also determined Keq between TQ Green and GSH and the relationship of the ratiometric change as a function of GSH concentration. Kd′ is the apparent dissociation constant for the reaction between TQ Green and GSH. The following equation can be derived:
Plotting (R−Rmin)/(Rmax−R) as a function of GSH concentration afforded a superb linear relationship with r^2=0.999 (FIGS. 6-7).
TQ Green was dissolved in PBS buffer (10 mM, pH 7.4) containing 1% DMSO with concentration at 32 μM. GSH was dissolved in the same PBS buffer with concentration from 0-80 mM. Above solutions were mixed at 1:1 ratio. All solutions were protected with nitrogen and stored in glove box to prevent any oxygen entering the solution. Samples of all solutions were taken out at 1, 18, 72, and 144 hours after mixing. UV-Vis and fluorescence were measured for all solutions.
Compounds 3b-d were dissolved in DMSO (10 mM) and 1 eq of 2 M β-mercaptoethanol (BME) was added. Compounds 3a and TQ Green were dissolved in PBS buffer (10 mM, pH 7.4) with 1% DMSO. GSH solution was added to reach a final concentration of 80 mM with compound 3a at 10 μM and TQ Green at 16 μM, respectively. All solutions were then monitored continuously with UV-Vis and fluorimeter for 2 hours (Table 1).

## CCN(CC)c1ccc2cc(/C=C/C(=O)c3ccc(C(=O)O)cc3Br)c(=O)oc2c1 [TQ Green]
cells
  Cell penetration (confocal, 488 nm channel): trapped in the membrane
[1]
  Reaction with cysteine: did not observe appreciable reactions
Solubility
  solubility: > 500 µM
[2]; 10 mM GSH in PBS, room temperature, TQ Green 16 μM, probe 3a 10 μM
  Time to reach 95% of conversion: ~30 min
[2]; 37° C., intracellular environment, extrapolated
  Time to establish equilibrium with GSH: 15 to 30 min
[2]; TQ Green and GSH
  Second-Order Rate Constant: 0.150 ± 0.001 M⁻¹ s⁻¹
BSA
  Reaction with BSA: little reaction
[3]; deduced from Kd′ and absorption values at 488 nm, read-out: Kd (equilibrium dissociation constant)
  pKd: 2.80
[3]; reaction with various concentration of GSH in water/PBS pH 7.4, based on UV-Vis, read-out: Kd′ observed (apparent) dissociation constant
  pKd: 1.83
